The subject of one assay is HCT-116 cells. To be noted: read-out: IC50 against HCT-116 cells, cytotoxicity; cited from earlier work.
Another assay relates to microfilaments. Conditions: result in words; cited from earlier work.
The test system of assay [1] is actin cytoskeleton of HeLa cells. As to the kind of experiment: HeLa cell microfilament. Format: cell-based, human. Conditions: 24 h, result in words.

Entries after “also recorded” stand apart in the source; their conditions may differ.

Usually IC50 stands for the concentration that gives 50% inhibition. As for 18-epi-latrunculol, in the assay with HCT-116 cells, the IC50 was 2100 nM. In addition, the “MF disruption at 5 µM” value in the assay on microfilaments is “without MF disruption”.

For `C/C1=C\[C@H](C)C[C@H](C)OC(=O)C[C@H](c2ccc(O)cc2)NC(=O)[C@@H](Cc2c(Br)[nH]c3ccccc23)N(C)C(=O)[C@H](C)NC(=O)[C@@H](C)C1` [Compound 1, jasplakinolide], the “microfilament disruption at 80 nM” value in assay [1] was “exhibited microfilament disruption”.

Turning to `C=C1C[C@H](C)C(=O)N[C@@H](C)C(=O)N(C)[C@H](Cc2c(Br)[nH]c3ccccc23)C(=O)N[C@@H](c2ccc(O)cc2)CC(=O)O[C@@H](C)C[C@@H](C)C1=O` [Compound 11, jasplakinolide B], the “microfilament disruption at 80 nM” value in assay [1] was “without microfilament disruption; also recorded: without MF disruption; also recorded: did not exhibit microfilament-disrupting activity”.

As to jasplakinolide F [Compound 4], in assay [1], the “microfilament disruption at 80 nM” value is on record as “exhibited microfilament disruption”.

The record behind these values is publication PMC2848536 (Journal of medicinal chemistry, 2010).
